The term IC50 denotes the concentration that inhibits the measured activity by half. The EC50 is the concentration that produces a half-maximal response. Usually ΔTm stands for the shift of the melting midpoint relative to a reference.

This note sets out measurements from publication PMC9585585, “Discovery of Small-Molecule Allosteric Inhibitors of PfATC as Antimalarials” (Journal of the American Chemical Society, 2022).

Several values for one entry are separate records, joined by “and”; a condition that tells them apart may be missing. Identical values can stand only once. Like-named read-outs stand apart in the source and are kept apart here.

The target of data set [1] is T1, PfATC (Plasmodium falciparum, UniProt A0A5K1K910). Kind of data set: biochemical. The conditions noted are these: for IC50: in vitro activity assay, PfATC 50 nM, 2 mM CP, 1 mM aspartate, read-out: PfATC IC50.
T1 sequence (A0A5K1K910 entry or part of it): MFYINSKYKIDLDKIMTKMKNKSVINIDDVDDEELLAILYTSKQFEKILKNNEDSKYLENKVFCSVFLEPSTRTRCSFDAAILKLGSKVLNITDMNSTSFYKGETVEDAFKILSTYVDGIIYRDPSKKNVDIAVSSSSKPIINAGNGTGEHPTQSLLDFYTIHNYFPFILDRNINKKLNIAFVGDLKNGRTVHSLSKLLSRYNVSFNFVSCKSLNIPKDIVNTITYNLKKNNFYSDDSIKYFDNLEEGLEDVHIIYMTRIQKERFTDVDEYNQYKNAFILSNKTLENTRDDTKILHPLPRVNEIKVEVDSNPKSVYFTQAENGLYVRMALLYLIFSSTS
The test system of another data set is normal lymphocytes. Kind of data set: Human cell line experiments, AlamarBlue, normal lymphocytes. The conditions noted are these: for EC50: Hs normal lymphocytes, 72 hours, read-out: EC50 against normal lymphocytes; for cytotoxicity against cultured human lymphocytes: at 100 μM. It counts as cell-based. The method, then:
page 4: […] 418one in 50% (v/v) sulfuric acid) and one volume of 2,3-Butanedione monoxime (80 mM 2,3- 419Butanedione monoxime in 5% (v/v) acetic acid). After plates were sealed with transparent sealing 420tape to prevent evaporation and incubated overnight in the dark place at room temperature. After 421incubation, the plates were heated at 95 °C for 15 min in dark place, and kept for 30 min before 422measuring at 466 nm suing a Synergy H1 Hybrid Reader (BioTek). Analyses were performed using 423Microsoft Excel and Graph Pad Prism. 424HsATC activity assay. The enzymatic assay was performed as described herein above for 425enzymatic assay of PfATC with minor modifications. Briefly, the reaction was carried out at room 426temperature in a total volume of 150 μl of 10 mM L-aspartate and 5 mM carbamoyl phosphate 427saturated substrate solution in 50 mM Tris-Acetate buffer pH 8.3. hsATC was pre-incubated with 428inhibitor and L-Asp for 10 min at room temperature on a shaker. The reaction was initiated by 429adding CP and stopped after 5 min with […] color mix. Then the plate was covered by sealing 430tape and kept in dark place at room temperature and then heated to 95 °C for 15min in dark and kept 431the plate in the dark for another 30 min before measuring the absorbance at 466 nm suing a Synergy 432H1 Hybrid Reader (BioTek). Analyses were performed using Microsoft Excel and Graph Pad 433Prism. 434Human cell line experiments. The cell lines A375 (melanoma), H1299 (lungca), MCF7 435(breastca), REC-1 (mantel cell lymphoma, SUDHL2 (diffuse large B-cell lymphoma) and normal 436lymphocytes (obtained from tonsils) were cultured in RPMI 1640 (Lonza BioWhittaker, 437Walkersville, MD, USA) with 10% fetal bovine serum (FBS; HyClone Thermo Scientific, 438Waltham, MA, USA). Cells were plated in 96-wells plates and incubated with increasing 439concentrations of compounds for 72 hours as indicated. All experiments were performed in page 5: 440triplicate. AlamarBlue (Thermo Fisher Scientific, Waltham, MA USA) was added eight hours prior 441to read-out (extinction 560nm, emission 590nm). […] A freshly prepared protein 443solution at a concentration of 10 mg ml -1 and immediately used in crystallization trials. The 444screening for crystallization conditions for PfATC was performed using a high-through 445crystallization robot (Gryphon, Art Robbins) against commercially available sparse-matrix 446screening kits (JCSG plus and PACT premier; Molecular Dimensions Ltd.). All experiments were 447performed at 293 K using the sitting drop vapor diffusion technique in 96 well MRC2 plates 448(Molecular Dimensions Ltd.). Equal volumes (0.2 μL) of protein solution and crystallization 449reagent were equilibrated against 50 μL of reservoir solution. Medium size single crystals appeared 450overnight in various conditions containing PEG3350/4000. The apo-crystals were soaked for 10 […] 452the solution plus 20% glycerol, flash-cooled and stored in liquid nitrogen. The flashed cooled 453crystals was shipped to […], Deutsches Elektronen-Synchrotron DESY Beamline P11. […] The purified PfATC […] 457stocks in 100% DMSO) at a molar ratio of 1:5. The mixture was incubated at 20 °C for 40 minutes, 458then centrifugation was performed to remove the precipitate. The supernatant was immediately 459used in crystallization trials. The crystallization reagent were the same as apo crystallization […] The crystals were flash- 461cooled and stored in liquid nitrogen, and was shipped to […], Deutsches Elektronen- 462Synchrotron DESY Beamline P11.

The subject of the next data set is HepG2 cells. Kind of data set: Cytotoxicity on cultured human HepG2 cells. It counts as cell-based. The conditions noted are these: at a concentration of 100 μM.
The target of data set [2] is T1, PfATC. The data set can be described thus: Differential scanning fluorimetry (DSF). The class given is binding. Conditions: PfATC 5 µM, read-out: ΔTM of PfATC (thermal stabilization). The text has this:
464Data collection, processing and refinement. All the diffraction data sets were collected using
465synchrotron radiation wavelength 1.033200 Å at DESY beamline P11. The data collected for
466PfATC crystals grown in presence of fragments and compounds were processed using XDSAPP 25
467and Aimless 26, and the structures were solved and initially refined using the DIMPLE pipeline
468within CCP4 suite 26 with coordinates of the unliganded PfATC (5ILQ) as a starting model. The
469final refinement included manual rebuilding in coot 27 and Refmac5 28. The resulting crystal
470structures were deposited in PDB 29. Data collection and processing statistics are show in Table
472Differential Scanning Fluorimetry (DSF). The purified PfATC was incubate with 5000 × Sypro
473Orange (Invitrogen) and dilution it to 1:400 stock of dye in assay buffer (50 mM Tris-HCl pH =8.0
474and 300 mM NaCl). Each reaction consisted of 2 µL compound (10 mM stock in 100% DMSO), 5
475µL PfATC-Sypro orange mixture and 43 µL assay buffer. Final protein assay concentration was
4765µM, final DMSO concentration war […]. After incubation for 20 min at 20 ℃, the samples
477were hated from 25℃ to 95℃ at a rate of 0.5 ℃ min -1. The inflection points of the melting curves
478were determined using BioRad CSV 96 control software and processed & plotted by GraphPad.
479Microscale Thermophoresis (MST). […]

As to `COc1cccc(CCNC(=O)c2cc(-c3ccccc3)sc2NC(=O)OC(C)(C)C)c1` [BDA-24], the IC50 on PfATC [1] stood at 0.103 µM. The EC50 in the data set on normal lymphocytes was determined as 911 µM.
For `CC(C)(C)OC(=O)Nc1sc(-c2ccccc2)cc1C(=O)NCCO` [BDA-14], the IC50 at PfATC [1] was 0.115 µM and 0.114 µM. Also, in the data set with normal lymphocytes, the EC50 was more than 1000 µM and the “cytotoxicity against cultured human lymphocytes” value is “no cytotoxicity”.
With `CC(C)(C)OC(=O)Nc1sc(-c2ccccc2)cc1C(=O)NCCc1ccc(O)cc1` [BDA-11], at PfATC [1], the IC50 is 0.0456 µM and 0.046 µM and 0.0457 µM. The EC50 with normal lymphocytes was determined as 757 µM.
For `CC(C)(C)OC(=O)Nc1sc(-c2ccccc2)cc1C(=O)NCCc1ccccc1` [BDA-04], the IC50 at PfATC [1] amounted to 0.0772 µM. Further, the mechanism of inhibition entry on PfATC [1] (with CP and Asp, 0, 200 and 400 nM BDA-04, one substrate fixed (2 mM CP or 1 mM Asp)) is “noncompetitive inhibitor”. For the same molecule, the “cytotoxic effect on cultured human HepG2 cells” value with HepG2 cells was “no cytotoxic effect”. The ΔTm on PfATC [2] came to 22.8 °C. Besides, in the data set with normal lymphocytes (Homo sapiens, Lymphocyte), the half-maximal effective concentration (EC50) was approximately 1000 µM. The “cytotoxicity against cultured human lymphocytes” value in the data set on normal lymphocytes is listed as “no cytotoxicity”.
